Reference: patent publication US10966427B2, “3-pyridyl oxyanilide compound and use therefor” (SUMITOMO CHEMICAL COMPANY, LIMITED, priority 2017, dated 2021)

Columns and labels:
Format in all cases: in vivo
Digitaria ciliaris = assay: Test Examples 2 and 5, Comparative Example 1: foliar spray herbicide efficacy; conditions: second to third leaf stages, sprayed, 63 g/ha; for Herbicide efficacy against digitaria ciliaris: greenhouse 16 days
Procedure: Here “untreated group” represents a group where a similar treatment procedure to that of the treated group except not using the test compound is done. One point one nine (1.19) mg of the present compound was dissolved 1 mL of a DMF solution containing 2% polyoxyethylene sorbitan monolaurate, and then 18 mL of water was added thereto. The mixture was sprayed uniformly to Digitaria ciliaris in the second to third leaf stages so that the applied dose was made 63 g/ha. Thereafter, the plants were cultivated in a greenhouse for 7 days, and the herbicide efficacy was assessed. […] One point one nine (1.19) mg of the present compound was dissolved 1 mL of a DMF solution containing 2% polyoxyethylene sorbitan monolaurate, and then 18 mL of water was added thereto. The mixture was sprayed uniformly to Digitaria ciliaris in the second to third leaf stages so that the applied dose was made 63 g/ha. Thereafter, the plants were cultivated in a greenhouse for 16 days, and the herbicide efficacy was assessed. The test was conducted similarly to the method described in Test Example 5 except for using a compound represented by the following formula (A): […]

soybean = assay: Test Examples 4 and 5, Comparative Example 1: foliar spray phytotoxicity against useful plants; conditions: second to third leaf stages, sprayed, 63 g/ha; for Phytotoxicity against Soybean: greenhouse 16 days
Procedure: Here “untreated group” represents a group where a similar treatment procedure to that of the treated group except not using the test compound is done. One point one nine (1.19) mg of the present compound was dissolved 1 mL of a DMF solution containing 2% polyoxyethylene sorbitan monolaurate, and then 18 mL of water was added thereto. The mixture was sprayed uniformly to soybean in the second to third leaf stages so that the applied dose was made 63 g/ha. Thereafter, the plants were cultivated in a greenhouse for 7 days, and the phytotoxicity against useful plants was assessed. […] Also, 1.19 mg of the present compound was dissolved 1 mL of a DMF solution containing 2% polyoxyethylene sorbitan monolaurate, and then 18 mL of water was added thereto. The mixture was sprayed uniformly to soybean in the second to third leaf stages so that the applied dose was made 63 g/ha. Thereafter, the plants were cultivated in a greenhouse for 16 days, and the phytotoxicity against useful plants was assessed. The test was conducted similarly to the method described in Test Example 5 except for using a compound represented by the following formula (A): […]

Leptochloa chinensis = assay: Test Example 3: pot spray followed by flooding, herbicide efficacy; conditions: first leaf stage, pot sprayed, 250 g/ha, flooded to 3 cm next day, greenhouse 20 days
Procedure: Here “untreated group” represents a group where a similar treatment procedure to that of the treated group except not using the test compound is done. Leptochloa chinensis seeds were seeded into a pot having a diameter of 9 cm and a death of 10 cm that was filled with steam-sterilized soil, and the plants were cultivated in a greenhouse until an emergence of the first leaf stage. Next, 4.75 mg of the present compound was dissolved into a 1 mL of DMF solution containing 2% polyoxyethylene sorbitan monolaurate, and then 18 mL of water was added thereto. The mixture was sprayed uniformly to the pot so that the applied dose was made 250 g/ha. After the pot was flooded to a depth of 3 cm on next day, the plants were cultivated in a greenhouse for 20 days, and the herbicide efficacy was assessed.

Echinochloa crus-galli = assay: Test Example 1: foliar spray herbicide efficacy; conditions: second to third leaf stages, sprayed, 63 g/ha, greenhouse for days (number not given)
Procedure: Here “untreated group” represents a group where a similar treatment procedure to that of the treated group except not using the test compound is done. One point one nine (1.19) mg of the present compound was dissolved 1 mL of a DMF solution containing 2% polyoxyethylene sorbitan monolaurate, and then 18 mL of water was added thereto. The mixture was sprayed uniformly to Echinochloa crus-galli in the second to third leaf stages so that the applied dose was made 63 g/ha. Thereafter, the plants were cultivated in a greenhouse for days, and the herbicide efficacy was assessed.

SMILES | Herbicide efficacy against digitaria ciliaris (Digitaria ciliaris) | Phytotoxicity against Soybean (soybean) | score as herbicide efficacy (Digitaria ciliaris; Digitaria ciliaris, greenhouse 7 days) | score as herbicide efficacy (Leptochloa chinensis) | score as herbicide efficacy (Echinochloa crus-galli) | score as phytotoxicity (soybean; soybean, greenhouse 7 days)
Cn1c(C(F)(F)F)cc(=O)n(-c2cc(Oc3cccnc3OCC(=O)Oc3ccccc3)c(Cl)cc2F)c1=O [Compound (A), reference compound] | 10 (100% of herbicide efficacy) | 10 (100% of phytotoxicity) |  |  |  | 
CCOC(=O)COc1ncccc1Oc1cc(NC(=O)COc2ncccc2Oc2cc(-n3c(=O)cc(C(F)(F)F)n(C)c3=O)c(F)cc2Cl)c(F)cc1Cl [Present compound] | 10 (100% of herbicide efficacy) | 1 (10% to 19% of phytotoxicity) | 9 (90% to 99% of herbicide efficacy) | 10 (100% of herbicide efficacy) | 9 (90% to 99% of herbicide efficacy) | 2 (20% to 29% of phytotoxicity)
